Data published in patent publication US4435404A, “Carbostyril derivatives” (priority 1980, dated 1984).

Key:
[1] = test system: arterial papillary muscle; experiment: Positive inotropic effect, blood-perfused arterial papillary muscle; set-up: species or system dog; details: into septal artery
Procedure: Positive inotropic effects of the novel carbostyril derivatives of the present invention were tested according to a method described by M. Endoh and K. Hashimoto, in "American Journal of Physiology", Vol. 218, No. 5, May, 1970, pages 1459-1463 as follows:
Adult bastard dogs of both sexes, weighing 8-12 kg, were anesthetized with pentobarbital-Na at a rate of 30 mg/kg by intraveneous administration. After another intraveneous administration of sodium heparin, 1,000 μ/kg, the test dog was sacrificed by blood letting. The heart of the dog was excised and immediately plunged into Locke's solution, then the arterial papillary muscle was excised out with interventicular septum. The septal artery was carefully isolated and cannulated with a polyethylene cannula and was ligated with thread. Septal arteries those of connected to other than the arterial papillary muscle were ligated with thread. Next, the donor adult bastard dogs, weighing 18-27 kg, were anesthetized with pentabarbital-Na (30 mg/kg, intraveneous injection), and further treated with intravenous administration of sodium heparin (1,000 μ/kg). The arterial papillary muscle was perfused through the septal artery being cannulated with the polyethylene cannula with the blood conducted from the carotid artery of the donor dog by aid of Peristaric pump. The perfusion pressure was maintained at 100 mmHg constantly. Then the muscle was electrically stimulated by an electronic stimulator through bipolar electrodes in contact with the interventicular septum. The strength of stimulation was 2 X (the minimum value for appearing the action), frequency 2 Hz, pulse duration 2 msec.
The isometric contraction generated was measured through a force-displacement transducer. The amount of blood flow in the coronary arteries was measured by determining the amount of the blood flow conducted to the septal artery by electromagnetic flow meter. All the data were recorded on an ink-writing recorder.
A solution containing a compound to be tested was injected into the septal artery through the rubber tube connected close to the shunk of the polyethylene cannula, in an amount of 10-30 μl.
The results obtained is shown in Table 4, in which the increasement (%) of contraction is indicated as the ratio of the contractions before and after the administration (injection) of the solution containing the test compound.

bastard dog = experiment: Increasing effect of cerebral blood flow; type: in vivo; details: profunda femoris vein
Procedure: Thus, a bastard dog (male, 12-20 kg of body weight) was fixed in a prone (position) and was anesthetized with 20 mg/kg of pentobarbital sodium and made forced breathing to kept the frequency of respiration at 20 times/minutes. Then, the skull was bared and the surface bone was removed to expose the venous sinus by using grinder and the venous blood was took out from the venas which was cannulizated. The amount of venous blood flow was measured by using an electromagnetic blood flow meter and next measured by using drop-counter by measuring the number of drops of blood per 10 seconds.
The increasing effect of cerebral blood flow was calculated by comparing the number of blood drops in 30 seconds at the peak of increasement shown before and after the administration of compound to be tested. The each of compounds to be tested was dissolved in dimethylformamide and diluted with physiological saline solution and administered through a cannule being inserted into the profunda femoris vein.

[2] = test system: Deoxycorticosteroneacetate (DOCA)/saline hypertension rats (DHR); experiment: Hypotensive effect, Tail-cuff method, DHR; type: in vivo, rat; details: 30 mg/kg oral, mean value ± standard deviation
Procedure: (§1) Hypotensive effect of the compounds were measured by determining the maximum blood pressure of the test animals according to a procedure of Tail-cuff method.
(§2) Test animals used were the following two types.
(2) Deoxycorticosteroneacetate (DOCA)/saline hypertension rats (DHR)
Wistar strain male rats having 150-170 g of body weight, were anesthetized with ether and the left-side kidney was enucleated. One (1) week after the operation, 10 mg/kg of DOCA was injected subcutaneously once a week and 1% NaCl aqueous solution was given as drinking water. Five (5) weeks after the operation, rats having the maximum blood pressure over 150 mmHg were selected and used as test animals which were abstained from food for overnight.
(§3) Each of compounds to be tested were administered orally and the blood pressure was measured before the administration and 1, 2, 4, 6 and 8 hours after the administration. The blood pressure was measured by using Recorder (Rectihoriz type 8S, San-ei Instrument) and Electrosthygmomanometer PE-300 (Macro Bio-systems, Houston, Tex.).

[3] = test system: Gold blatt type renoprival hypertension rats (RHR); experiment: Hypotensive effect, Tail-cuff method, RHR; type: in vivo, rat; details: 30 mg/kg oral, mean value ± standard deviation
Procedure: as §1, §2
(1) Gold blatt type renoprival hypertension rats (RHR)
Wistar strain male rats having, 160-180 g of body weight, were anesthetized with ether and the left-side renal artery was pluged with a silver clip having 0.2 mm inside diameter, while the right-side renal artery was kept as it was without operation. Four (4) weeks after the operation, rats having the maximum blood pressure over 150 mmHg were selected and used as test animals which were abstained from food for overnight.
as §3

Substance	Increasing of inotropic ([1]; dosage 30 n mol) [%]	Increasing of inotropic ([1]; dosage 100 n mol) [%]	Increasing of inotropic ([1]; dosage 10 n mol) [%]	Increasing effect of cerebral blood flow (bastard dog; dosage 300 μg/kg) [%]	Increasing effect of cerebral blood flow (bastard dog; dosage 100 μg/kg) [%]	Maximum blood pressure after the administration (difference) ([2]; 1 hour) [mmHg]	Maximum blood pressure after the administration (difference) ([2]; 2 hours) [mmHg]	Maximum blood pressure after the administration (difference) ([2]; 4 hours) [mmHg]	Maximum blood pressure after the administration (difference) ([2]; 6 hours) [mmHg]	Maximum blood pressure after the administration (difference) ([3]; 1 hour) [mmHg]	Maximum blood pressure after the administration (difference) ([3]; 2 hours) [mmHg]	Maximum blood pressure after the administration (difference) ([3]; 4 hours) [mmHg]	Maximum blood pressure after the administration (difference) ([3]; 6 hours) [mmHg]	Maximum blood pressure after the administration (difference) ([3]; 8 hours) [mmHg]
6-{4-[N-(2-Hydroxypropyl)-N-cyclohexylaminocarbonyl]butoxy}-3,4-dihydrocarbostyril [Example 8]	38.7	89.4												
6-{3-[N-(2-Hydroxybutyl)-N-cyclohexylaminocarbonyl]propoxy}-3,4-dihydrocarbostyril [Example 4]		62.5	10	64.2										
6-{4-[N-(2-Hydroxyethyl)-N-cyclohexylaminocarbonyl]butoxy}-3,4-dihydrocarbostyril [Example 9]					85.3	-51.2 ± 14.0	-44.6 ± 14.6	-42.4 ± 13.9	-34.0 ± 10.2	-10.1 ± 6.2	-11.6 ± 9.6	-14.2 ± 5.0	-8.0 ± 2.6	
6-{3-[N-(2-hydroxyethyl)-N-cyclohexylaminocarbonyl]propoxy}-3,4-dihydrocarbostyril [Example 2]	94.3		38.9			-63.0 ± 9.1	-30.4 ± 9.9	-42.8 ± 5.5	-24.1 ± 6.8	-4.8 ± 6.4	-4.8 ± 3.7	-3.2 ± 4.0		
6-{5-[N-(2-Hydroxybutyl)-N-cyclohexylaminocarbonyl]pentyloxy}-3,4-dihydrocarbostyril [Example 16]					63.2	-20.2 ± 8.0	-21.2 ± 9.7	-16.2 ± 6.8	-6.5 ± 8.5					
7-{3-[N-(3-Hydroxypropyl)-N-cyclohexylaminocarbonyl]propoxy}-3,4-dihydrocarbostyril [Example 17]					34.4	-2.5 ± 4.0	-8.7 ± 3.3	-9.3 ± 8.6		-25.5 ± 7.0	-23.3 ± 9.6	-27.0 ± 14.1	-33.7 ± 10.2	-29.8 ± 9.7
